This note sets out measurements from ChEMBL document CHEMBL1201862, “PubChem BioAssay data set” (2004).

What all share (assay): NCI tumour cell line growth inhibition, 48 h
Assay [1] deals with SW-620.
Assay [2] concerns LOX IMVI.
For assay [3], the system named is UACC-62.
Assay [4] has as its system RXF 393.
In assay [5] the test system is HL-60.
Assay [6] deals with CCRF-CEM.
Assay [7] relates to MOLT-4.
Assay [8] deals with A549.
Assay [9] deals with OVCAR-5.
For assay [10], the system named is UO-31.
The test system of assay [11] is UACC-257.
Assay [12] relates to Malme-3M.
The test system of assay [13] is CAKI-1.
Assay [14] deals with KM12.
For assay [15], the system named is NCI-H226.
In assay [16] the test system is HOP-62.
In assay [17] the test system is M14.

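These data come from cells grown in 96-well plates and exposed to compound for 48 hours at five concentrations. GI50 = concentration required for 50% inhibition of growth.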 The source made the active and inactive calls. No stated cut-off is given here; in the data, active = GI50 up to about 1.1 µM and inactive = higher. Where only a bound is given, the exact number is not on record here.

Turning to `O=C(Nc1ccc(C(F)(F)F)cc1[N+](=O)[O-])C(=O)Nn1c(S)nc2ccccc2c1=O`, the GI50 in assay [1], in assay [2], in assay [3], in assay [4], in [5] and in assay [6] was > 100 µM (inactive) throughout. Moreover, the GI50 in [7], in [8], in assay [9], in assay [10], in assay [11] and in assay [12] was > 100 µM (inactive) in each case. The GI50 in assay [13], in [14], in [15] and in [16] was > 100 µM (inactive) each time.
With `CCC/C(=N\NC(=O)c1cc2ccccc2cc1O)C(CC)C(=O)CCC(=O)N(Cc1ccccc1)Cc1ccccc1` (centres undefined), the GI50 in assay [1] is 64 µM (inactive); in assay [2], 43 µM (inactive); in assay [3], 11.2 µM (inactive); in assay [4], 37 µM (inactive); in assay [5], 13 µM (inactive); in [17], 32.7 µM (inactive). For the same compound, the GI50 was 7.62 µM (inactive) in assay [6]; 30.7 µM (inactive) in assay [7]; 63 µM (inactive) in assay [8]; 36.2 µM (inactive) in assay [9]; 54 µM (inactive) in assay [10]; 36.1 µM (inactive) in assay [11]. In addition, the GI50 in assay [12] is 50.1 µM (inactive); in assay [13], 46 µM (inactive); in assay [14], 96.6 µM (inactive); in assay [15] it was 47.3 µM (inactive); in assay [16], 81.1 µM (inactive).
As to `O=C(CC(=O)c1ccc([N+](=O)[O-])cc1)C(=O)Nc1nccs1`, the GI50 in [1], in assay [2], in [3], in assay [4], in assay [5] and in assay [17] was > 100 µM (inactive) each time. For the same compound, the GI50 in [6], in assay [7], in assay [8], in assay [9], in [10] and in assay [12] was > 100 µM (inactive) each time. Also, the GI50 in [13], in [14], in assay [15] and in assay [16] was > 100 µM (inactive) each time.
Take `Cc1nc(-c2cccnc2)sc1C(=O)/C=C/c1cccc([N+](=O)[O-])c1`: the GI50 in [1], in assay [2], in assay [3], in assay [4], in assay [5] and in assay [6] was > 100 µM (inactive) each time. Moreover, the GI50 in assay [7], in assay [8], in assay [9], in assay [10], in [11] and in assay [12] was > 100 µM (inactive) each time. The GI50 in [13], in assay [14], in assay [15] and in [16] was > 100 µM (inactive) throughout.
For the compound `COc1ccc(/C(Cl)=C(\C=O)c2ccc(Cl)cc2)cc1OC`, the GI50 in assay [1] is 3.75 µM (inactive); in [2], 3.45 µM (inactive); in assay [3], 5.97 µM (inactive); in [4] it was 6.01 µM (inactive); in [5] it was 2.55 µM (inactive); in assay [17] it was 22.4 µM (inactive). Further, the GI50 in assay [6] is 2.98 µM (inactive); in [7], 2.12 µM (inactive); in assay [8], 6.17 µM (inactive); in assay [9] it was 85.1 µM (inactive); in [10], 4.68 µM (inactive); in assay [11] it was 6.55 µM (inactive). For the same compound, the GI50 in [12] was 34.9 µM (inactive); in [13], 4.59 µM (inactive); in assay [15] it was 4.59 µM (inactive); in assay [16], 15.9 µM (inactive).
For `O=C(N/N=C(\c1nc2ccc(Cl)cc2nc1O)C(O)c1ccccc1Cl)c1ccncc1` (centres undefined), the GI50 in assay [1], in assay [2], in assay [3], in [4], in assay [5] and in assay [17] was > 100 µM (inactive) in each case. For the same compound, the GI50 in assay [6], in assay [7], in [8], in assay [9], in assay [10] and in [11] was > 100 µM (inactive) each time. Besides, the GI50 in [12], in assay [13], in assay [14] and in [15] was > 100 µM (inactive) in each case.
On to `COc1cc2ccc1-c1cc(ccc1O)CC1c3cc4c(cc3CCN1C)Oc1c(OC)cc3c(c1O4)C(C2)N(C)CC3` (centres undefined), for which the GI50 in [1] was 1.84 µM (inactive); in assay [2] it was 1.99 µM (inactive); in assay [3], 2 µM (inactive); in assay [4], 1.67 µM (inactive); in [5] it was 2.16 µM (inactive); in assay [17] it was 1.82 µM (inactive). The GI50 in assay [6] is 2.19 µM (inactive); in [7] it was 1.83 µM (inactive); in assay [8] it was 1.84 µM (inactive); in [9] it was 3.4 µM (inactive); in assay [10] it was 1.8 µM (inactive); in assay [11] it was 1.72 µM (inactive). Also, the GI50 in [12] is 1.89 µM (inactive); in [13], 2.52 µM (inactive); in assay [14] it was 1.73 µM (inactive); in [15] it was 2.22 µM (inactive); in [16] it was 1.93 µM (inactive).
With `CN(C)CC1(C)CC/C(=C\c2ccc(Cl)cc2)C1=O` (centres undefined), the GI50 in assay [1] is 16.5 µM (inactive); in assay [2], 31.3 µM (inactive); in assay [3] it was 28.5 µM (inactive); in assay [4], 22.4 µM (inactive); in assay [5] it was 19.7 µM (inactive); in [17] it was 43.2 µM (inactive). The GI50 is 25.8 µM (inactive) in assay [6]; 20.5 µM (inactive) in [7]; 66.8 µM (inactive) in assay [8]; > 100 µM (inactive) in [9]; 45.8 µM (inactive) in [10]; 44.7 µM (inactive) in assay [11]. Also, the GI50 in assay [12] was > 100 µM (inactive); in assay [13], 22.7 µM (inactive); in assay [14] it was 31.8 µM (inactive); in assay [15] it was > 100 µM (inactive); in assay [16], > 100 µM (inactive).
In the case of `Cc1c(N)nc(C(CC(N)=O)NCC(N)C(N)=O)nc1C(=O)NC(C(=O)NC(C)C(O)C(C)C(=O)NC(C(=O)NCCc1nc(-c2nc(C(=O)NCCCNCCCCN)cs2)cs1)C(C)O)C(OC1OC(CO)C(O)C(O)C1OC1OC(CO)C(O)C(OC(N)=O)C1O)c1c[nH]cn1` (centres undefined), the GI50 is > 10 µM (inactive) in [1]; 0.461 µM (active) in assay [2]; 2.71 µM (inactive) in assay [3]; 0.29 µM (active) in assay [4]; > 10 µM (inactive) in [5]; 1.67 µM (inactive) in [17]. For the same compound, the GI50 in assay [6] is > 10 µM (inactive); in assay [7] it was 2.94 µM (inactive); in assay [8], 4.81 µM (inactive); in assay [9], > 10 µM (inactive); in assay [10], 2.36 µM (inactive); in [11] it was > 10 µM (inactive). Further, the GI50 in assay [12] is 2.07 µM (inactive); in assay [13], 0.00178 µM (active); in [14], > 10 µM (inactive); in assay [15] it was 0.233 µM (active); in assay [16], 0.321 µM (active).
Consider `CCCC/C(C)=N/NC(N)=S`, for which the GI50 in assay [1] was > 100 µM (inactive); in [2], > 100 µM (inactive); in assay [3] it was > 100 µM (inactive); in assay [4], > 100 µM (inactive); in assay [5], 14.5 µM (inactive); in assay [17] it was > 100 µM (inactive). Moreover, the GI50 in assay [6], in assay [7], in assay [8], in [9], in [10] and in assay [11] was > 100 µM (inactive) in each case. Also, the GI50 in assay [12], in assay [13], in assay [14], in assay [15] and in [16] was > 100 µM (inactive) throughout.
Regarding `O=c1[nH]cnc2[nH]nnc12`, the GI50 was 1.49 µM (inactive) in assay [1]; 0.668 µM (active) in assay [2]; 0.968 µM (active) in assay [3]; 2.62 µM (inactive) in assay [4]; 0.323 µM (active) in assay [5]; 1.11 µM (active) in [17]. For the same compound, the GI50 is 0.4 µM (active) in [6]; 0.726 µM (active) in [7]; 84.9 µM (inactive) in assay [8]; 29.8 µM (inactive) in [9]; 2.73 µM (inactive) in [10]; 4.39 µM (inactive) in assay [11]. The GI50 in [12] was 1.41 µM (inactive); in assay [13], 1.25 µM (inactive); in assay [14], 32.7 µM (inactive); in [15] it was 5.6 µM (inactive); in [16] it was 1.99 µM (inactive).
Consider `C=C1C(OC(C)=O)CC(OC(C)=O)C2(C)C(OC(C)=O)C(OC(C)=O)C3=C(C)C(OC(=O)/C=C/c4ccccc4)CC(C(OC(C)=O)C12)C3(C)C` (centres undefined), for which the GI50 in assay [1] was > 100 µM (inactive); in assay [2], > 100 µM (inactive); in [3], > 100 µM (inactive); in [4] it was 36.4 µM (inactive); in assay [5], > 100 µM (inactive); in [17], > 100 µM (inactive). For the same compound, the GI50 in [6], in assay [7], in assay [8], in assay [9], in assay [10] and in assay [11] was > 100 µM (inactive) in each case. Moreover, the GI50 in assay [12] was 59.3 µM (inactive); in [13] it was 33.1 µM (inactive); in [14], > 100 µM (inactive); in [15], 67.3 µM (inactive); in [16], 31 µM (inactive).
